Laboratory results taken from patent EP0326640B1, “(1R,5S,6S)-2-substituted thio-6 (R)-1-hydroxyethyl -1-methyl-carbapenem - carboxylic acid derivatives” (LEDERLE (JAPAN) LTD., priority 1987, dated 1989).
≈ marks a conversion by molar mass, not a printed value.

Tests used:
Type in all cases: cell-based
[1] = system: Morganella morganii IFO3848; test: Antibacterial test, agar plate dilution method (MIC), standard strains; conditions: Morganella morganii, IFO3848, 18 h, MH agar, 37°C, read-out: MIC
Description: (§1) The antibacterial activities were tested by an agar plate dilution method in accordance with the standard method of The Japanese Chemotherapy Society [Chemotherapy, Vol. 29, 76-79 (1981)].
(§2) A Mueller-Hinton (MH) agar liquid medium of a test microorganism was cultured overnight at 37°C and the resultant culture medium was diluted with a buffered saline gelatin (BSG) solution to contain approximately 10⁶ cells of the test microorganisms per milliliter, and then the diluted solution was inoculated with a microplanter at the rate of approximately 5 microliters on a MH agar medium containing a test compound. This medium was then incubated at 37°C for 18 hours. The minimum inhibitory concentration (MIC) is determined as a minimum concentration in which no test microorganism could grow. It is noted here that the test organisms used were all standard strains.

[2] = system: Proteus mirabilis IFO3849; test: as above; conditions: Proteus mirabilis, IFO3849, 18 h, Proteus mirabilis IFO3849; MH agar, 37°C, 18 hours; read-out: MIC
Description: as §1, §2

[3] = system: Proteus vulgaris HX-19; test: as above; conditions: HX19; Proteus vulgaris HX-19; MH agar, 37°C, 18 hours; read-out: MIC
Description: as §1, §2

[4] = system: Proteus vulgaris OX-19; test: as above; conditions: OX19; Proteus vulgaris OX-19; MH agar, 37°C, 18 hours; read-out: MIC
Description: as §1, §2

[5] = system: Providencia rettgeri IFO 3850; test: as above; conditions: Providencia rettgeri, IFO3850, 18 h, MH agar, 37°C, read-out: MIC
Description: as §1, §2

[6] = system: Pseudomanas aeruginosa NCTC 10940; test: as above; conditions: 18 h, MH agar, 37°C, read-out: MIC
Description: as §1, §2

[7] = system: Pseudomonas aeruginosa IFO 3445; test: as above; conditions: IFO3445, MH agar, 37°C, 18 hours, read-out: MIC
Description: as §1, §2

[8] = system: Salmonella enteritidis G14; test: as above; conditions: Salmonella enterica, MH agar, 37°C, 18 hours, read-out: MIC
Description: as §1, §2

[9] = system: Salmonella paratyphi 1015; test: as above; conditions: Salmonella enterica, MH agar, 37°C, 18 hours, read-out: MIC
Description: as §1, §2

[10] = system: Salmonella schottmuelleri 8006; test: as above; conditions: MH agar, 37°C, 18 hours, read-out: MIC
Description: as §1, §2

[11] = system: Salmonella typhi 901; test: as above; conditions: Salmonella enterica, TYPHI, 18 h, MH agar, 37°C
Description: as §1, §2

[12] = system: Serratia marcescens IAM1184; test: as above; conditions: Serratia marcescens, IAM1184, 18 h, MH agar, 37°C, read-out: MIC
Description: as §1, §2

[13] = system: Citrobactor freundii GN 346; test: Antibacterial activity against clinically isolated β-lactamase (cephalosporinase) producing strains (MIC); conditions: cephalosporinase producing strain, SDA, 18 to 20 hours
Description: (§3) The antibacterial activities against clinically isolated β-lactamase producing strains were tested by the agar plate dilution method in accordance with the standard method of The Japanese Chemotherapy Society [Chemotherapy, Vol. 29, 76-79 (1981)]. A solution of a cephalosporinase producing strain stored by Episome Research Institute, prepared by incubating the strain in a sensitivity test broth (STB; product of Nissui K. K.) for 18 hours, was diluted with a fresh STB solution so that the solution contained 10⁶ cells per milliliter. The diluted solution was then inoculated as spots in a microplanter on a sensitivity disk agar-N (SDA; product of Nissui K. K.) containing a test compound. The disk agar was then incubated for 18 to 20 hours. The minimum inhibitory concentration was determined as a minimum concentration in which the test microorganism no longer grew after a 18 to 20-hour incubation.

[14] = system: Citrobactor freundii GN 7391; test: as above; conditions: cephalosporinase producing strain, SDA, 18 to 20 hours
Description: as §3

[15] = system: Klebsiella oxytoca GN 10650; test: as above; conditions: Klebsiella oxytoca, GN10650, Klebsiella oxytoca GN 10650; cephalosporinase producing strain, SDA, 18 to 20 hours; read-out: MIC
Description: as §3

[16] = system: Proteus vulgaris GN 4413; test: as above; conditions: Proteus vulgaris, GN4413, Proteus vulgaris GN 4413; cephalosporinase producing strain, SDA, 18 to 20 hours; read-out: MIC
Description: as §3

[17] = system: Proteus vulgaris GN 7919; test: as above; conditions: Proteus vulgaris, GN7919, Proteus vulgaris GN 7919; cephalosporinase producing strain, SDA, 18 to 20 hours; read-out: MIC
Description: as §3

[18] = system: Pseudomonas aeruginosa GN 10362; test: as above; conditions: GN10362, cephalosporinase producing strain, SDA, 18 to 20 hours, read-out: MIC
Description: as §3

[19] = system: Pseudomonas aeruginosa GN 10367; test: as above; conditions: GN10367; Pseudomonas aeruginosa GN 10367; cephalosporinase producing strain, SDA, 18 to 20 hours; read-out: MIC
Description: as §3

[20] = system: Pseudomonas aeruginosa GN 918; test: as above; conditions: GN918; Pseudomonas aeruginosa GN 918; cephalosporinase producing strain, SDA, 18 to 20 hours; read-out: MIC
Description: as §3

[21] = system: Pseudomonas cepacia GN 11164; test: as above; conditions: Burkholderia cepacia, GN11164, cephalosporinase producing strain, SDA, 18 to 20 hours, read-out: MIC
Description: as §3

[22] = system: Serratia marcescens GN 10857; test: as above; conditions: Serratia marcescens, GN10857, Serratia marcescens GN 10857; cephalosporinase producing strain, SDA, 18 to 20 hours; read-out: MIC
Description: as §3

[23] = system: Serratia marcescens L-65; test: as above; conditions: Serratia marcescens, L65, Serratia marcescens L-65; cephalosporinase producing strain, SDA, 18 to 20 hours; read-out: MIC
Description: as §3

[24] = system: Serratia marcescens L-82; test: as above; conditions: L82, cephalosporinase producing strain, SDA, 18 to 20 hours, read-out: MIC
Description: as §3

`Cc1nnc(SCC2=C(C(=O)O)N3C(=O)[C@@H](NC(=O)Cn4cnnn4)[C@H]3SC2)s1` [CEZ, cefazolin] was tested, and the MIC [1] was 25 µg/mL (≈ 55 µM), the MIC [2] was 6.25 µg/mL (≈ 13.8 µM) and the MIC [3] was 6.25 µg/mL (≈ 13.8 µM). For the same compound, the MIC [4] was 6.25 µg/mL (≈ 13.8 µM), the MIC [5] was 12.5 µg/mL (≈ 27.5 µM) and the MIC [6] was over 100 µg/mL. The MIC [7] was over 100 µg/mL, the MIC [8] was 0.78 µg/mL (≈ 1.72 µM) and the MIC [9] was 1.56 µg/mL (≈ 3.43 µM). For the same compound, the MIC [10] was 0.78 µg/mL (≈ 1.72 µM), the MIC [11] was 0.78 µg/mL (≈ 1.72 µM) and the MIC [12] was over 100 µg/mL. The MIC [13] was 25 µg/mL (≈ 55 µM), the MIC [14] was over 100 µg/mL and the MIC [15] was 0.2 µg/mL (≈ 0.44 µM). The MIC [16] was 0.2 µg/mL (≈ 0.44 µM), the MIC [17] was 3.13 µg/mL (≈ 6.89 µM) and the MIC [18] was 3.13 µg/mL (≈ 6.89 µM). The MIC [19] was 3.13 µg/mL (≈ 6.89 µM), the MIC [20] was 6.25 µg/mL (≈ 13.8 µM) and the MIC [21] was 0.78 µg/mL (≈ 1.72 µM). For the same compound, the MIC [22] was 0.78 µg/mL (≈ 1.72 µM), the MIC [23] was 0.2 µg/mL (≈ 0.44 µM) and the MIC [24] was 0.39 µg/mL (≈ 0.858 µM).
